Key:
[1] = tested on: mouse adenine-induced chronic kidney disease model; experiment: Mouse adenine-induced chronic kidney disease (anemia) model; type: in vivo, male C57BL/6 mice
From the text: The anemia associated with chronic kidney disease has been associated with the hepatic hormone hepcidin (Akchurin et al., Am. J. Physiol. Renal Physiol., 2016). Therefore, reduction of hepcidin levels through inhibition of ALK2 would be a useful therapeutic strategy to combat this aspect of the disease. To test this hypothesis, a murine model of chronic kidney disease that also leads to anemia was used. Orally administered adenine metabolizes to 2,8-dihydroxyadenine, which crystalizes in the tubules of the kidney. Build-up of this metabolite causes kidney injury (nephropathy), inflammation, and subsequently anemia. Mice (typically male C57B/6 mice age 6-10 weeks) are administered adenine (maximum dose of 50 mg/kg QD) by oral gavage for 28 days. During this time, mice are monitored weekly for changes in kidney function and hematology. Anemia onset is tracked by blood draws to measure complete blood count (CBC), which includes red blood cell count, hemoglobin levels, and hematocrit. Drops in these blood parameters would be indicative of anemia. […] Changes in kidney function are detectable within 10 days of adenine administration (Jia et al., BMC Nephrology, 2013; Rahman et al., PLoS One, 2018), and are monitored by analysis of plasma levels of creatinine and blood urea nitrogen (BUN) (Rahman et al., PLoS One, 2018). Increases in plasma creatinine, plasma BUN, and urine protein (>2 fold) are indicative of kidney injury. Body weights are also monitored weekly as a sign of overall fitness.
To investigate the ability of an ALK2 inhibitor to alleviate the anemia brought on by kidney injury, male C57BL/6 mice (Charles River Laboratories) were administered oral adenine (45 mg/kg QD) for 28 days. A cohort of mice were also administered vehicle solution to maintain a normal blood level baseline for comparison (n=10). Mice were monitored weekly for changes in blood parameters by CBC, and for changes in weight. Starting at 14 days post first administration of adenine, mice receiving adenine were dosed with either 30 mg/kg QD (n=8) or 100 mg/kg QD (n=9) Compound A, or vehicle control (n=10). Mice were dosed for 21 days, which includes […] after the cessation of adenine administration. Final analyses were performed one week after the last dose of Compound A, 42 days after adenine administration began. Shown in FIG. 1 are results from this experiment.
A study was performed to investigate the effects of starting the dosing of Compound A later in kidney disease progression at the point when hepcidin levels increase, at […]. Male C57BL/6 mice were administered oral adenine (45 mg/kg QD) for 28 days. A cohort of mice were also administered vehicle solution to maintain a normal blood level baseline for comparison (n=8). Mice were monitored weekly for changes in blood parameters by CBC, and for changes in weight. The mice receiving adenine were dosed with either 30 mg/kg QD (n=8) or 100 mg/kg QD (n=8) Compound A, or vehicle control (n=8). Compound A dosing began at either 14 or 21 days after adenine administration began and continued for 21 days, followed by one more week until blood analysis. The dosing that began on day 14 was termed “prophylactic” as it began before the increase in hepcidin occurs. Dosing that began on day 21 was termed “concomitant” as the dosing coincided with hepcidin level increase. […] Overall, Compound A was able to improve the anemia arising in this model. […]

[2] = 28-day repeat dose toxicity study in dogs; type: in vivo
From the text: (§1) Iron parameters and liver functional tests will be monitored clinically.
(§2) Potential increases in heart rate, skin/hair, and the gastrointestinal track will also be monitored clinically.

[3] = 28-day repeat dose toxicity study in rats; type: in vivo
From the text: as §1, §2

[4] = Phase 1a single-dose, dose-escalation safety and tolerability study in healthy adult participants; type: in vivo, human; details: single oral dose 10, 25, 50, 100 and 175 mg
From the text: A Phase 1a, double-blind, randomized, placebo-controlled, single-dose, dose-escalation and food-effect study is being conducted with 2-amino-N-(4-hydroxybicyclo-[2.2.2]octan-1-yl)-5-(4-((1R,5S)-3-(tetrahydro-2H-pyran-4-yl)-3-azabicyclo-[3.1.0]hexan-1-yl)phenyl)nicotinamide (“Compound A”) in order to assess the safety, tolerability, and pharmacokinetics (PK) of Compound A when administered orally as a single dose to healthy adult participants.
Compound A has been administered as a single dose at the dose levels of 10 mg, 25 mg, 50 mg, 100 mg, and 175 mg once to 9 healthy participants at each dose level.

Compound: Nc1ncc(-c2ccc([C@@]34C[C@@H]3CN(C3CCOCC3)C4)cc2)cc1C(=O)NC12CCC(O)(CC1)CC2 [Compound A, 2-amino-N-(4-hydroxybicyclo-[2.2.2]octan-1-yl)-5-(4-((1R,5S)-3-(tetrahydro-2H-pyran-4-yl)-3-azabicyclo-[3.1.0]hexan-1-yl)phenyl)nicotinamide]
- hemoglobin levels relative to normal range ([1]; 100 mg/kg QD, prophylactic dosing (from day 14), FIG. 2): returned hemoglobin levels that are within the normal range
- body weights ([1]; 30 or 100 mg/kg QD for 21 days from day 14, vs adenine without Compound A, FIG. 1 right): increased weights
- hemoglobin levels, prophylactic dosing ([1]; 30 or 100 mg/kg QD for 21 days starting day 14 of adenine, FIG. 2 left): dose dependent increase in hemoglobin levels
- hemoglobin levels, concomitant dosing ([1]; 30 or 100 mg/kg QD for 21 days starting day 21 of adenine, FIG. 2 right): significant increases in hemoglobin levels that were dose dependent
- hemoglobin (HGB) levels ([1]; day 42, 30 or 100 mg/kg QD for 21 days starting 14 days after first adenine (45 mg/kg QD, 28 days), vs adenine + vehicle, FIG. 1 left): dose-dependently improved hemoglobin (HGB) levels
- findings at the no observed adverse effect level (NOAEL) ([2]; 28-day repeat dose, at NOAEL): slight increases in iron staining in the liver with no associated increase in liver function tests (LFTs) or microscopic findings in the liver
- liver findings at higher doses ([2]; 28-day repeat dose, doses above NOAEL): increases in serum alanine aminotransferase (ALT) and aspartate aminotransferase (AST) and microscopic findings in the liver
- additional adverse findings considered related to inhibition of ALK3 ([2]; 28-day repeat dose, higher doses): mucosal hypertrophy and hyperplasia in the gastrointestinal tract with associated changes in the mesenteric lymph nodes, anagen phase arrest of hair follicles, and further alterations in iron metabolism
- heart rate ([2]; higher doses): increased heart rates
- findings at the no observed adverse effect level (NOAEL) ([3]; at NOAEL): slight increases in iron staining in the liver with no associated increase in liver function tests (LFTs) or microscopic findings in the liver
- liver findings at higher doses ([3]; doses above NOAEL): increases in serum alanine aminotransferase (ALT) and aspartate aminotransferase (AST) and microscopic findings in the liver
- additional adverse findings considered related to inhibition of ALK3 ([3]; higher doses, species not given): mucosal hypertrophy and hyperplasia in the gastrointestinal tract with associated changes in the mesenteric lymph nodes, anagen phase arrest of hair follicles, and further alterations in iron metabolism
- severe adverse events (SAEs) ([4]; 9 healthy participants per dose level): No severe adverse events (SAEs) have been observed
- severity of adverse events (AEs) ([4]; all dose levels): mild and self-limiting
